Results from patent US9511019B2, “Pharmaceutical compositions for treating IBD” (NORDIC PHARMA, priority 2009, dated 2016).

Tested on: TNBS colitis
Assay: TNBS colitis in mice, macroscopic lesions by Wallace criteria
Type: in vivo, C57b16 mice
Conditions: for Wallace score (macroscopic lesions, scale 0 to 10): TNBS colitic mice, daily intrarectal administration from 3 days before to 4 days after induction, 5-ASA 0.5 mg, PMSB 2.34 mg/kg/day, untreated control 3.4; for action percentage in comparison to the Wallace score of untreated control: Wallace score 3.4 = 0% action, score 0 = 100% action
Experimental: Induction of TNBS Colitis and Evaluation of Macroscopic Lesions in the Colitis after Administration of 5-ASA, PMSB, and Synergistic Combination of 5-ASA and PMSB.
Animal experiments were performed in accredited establishments according to governmental guidelines.
Colitis induction was conducted on C57b16 mice aged of 6 weeks old. They were anesthetized for 90-120 minutes before they received intrarectal administration of TNBS (trinitrobenzene sulphonic acid) (40 μl, 150 mg/kg) dissolved in a 1:1 mixture of 0.9% NaCl with 100% ethanol. Control mice received a 1:1 mixture of 0.9% NaCl with 100% ethanol or a saline solution using the same technique. Animals were sacrificed 4 days after TNBS administration. The anti-inflammatory effect of 5-ASA and steroid was evaluated by daily administration of these compounds by intrarectal route in a final volume of 50 μl, starting 3 days before the colitis induction and during all the experiment (4 days after colitis induction). Dosage amount of 5-ASA was 0.5 mg (50 μl of 1 g/100 ml stock), 65 mM and the dosage amount of PMSB was 2.34 mg/kg/day.
The macroscopic assessments of colitis were performed blindly by two investigators. The colon of each mouse was examined under a dissecting microscope (magnification, ×5), to evaluate the macroscopic lesions according to the Wallace criteria. The score rates macroscopic lesions on a scale of from 0 to 10 based on the features reflecting inflammation, such as hyperaemia, thickening of the bowel, and extent of ulceration. The Wallace scale is defined as follows. A score of 0 represents an absence of inflammation, a score of 1, a hyperaemia without ulcerations, a score of 2 a hyperaemia with a thickening of the mucosa without ulcerations, a score of 3, one ulceration without thickening of the colonic wall, a score of 4, two or more of ulcerative or inflammatory sites, a score of 5, two or more ulcerative and inflammatory sites with an extent of more than 1 cm, and for a score of from 6 to 10, an ulcerative or inflammatory site of growing size of from 2 to 6 cm.
A score of Wallace of 3.4 thus indicates an action of 0% and a score of 0, (no lesion) indicates 100% action. […] The action that the active ingredients would be expected to have in combination was calculated according to the Colby formula, and a comparison in the actions was then observed.
The Colby formula is E=X+Y−(XxY)/100, wherein E is the expected degree of action, expressed in %, when the active ingredients 5-ASA and prednisolone PMSB are used in combination. […] It is the degree of action converted from the Wallace score obtained for the A group. […] It is the degree of action converted from the Wallace score obtained for the P group.

Structure (SMILES)	Wallace score (macroscopic lesions, scale 0 to 10)	action percentage in comparison to the Wallace score of untreated control [%]
C[C@]12C=CC(=O)C=C1CC[C@@H]1[C@@H]2[C@@H](O)C[C@@]2(C)[C@H]1CC[C@]2(O)C(=O)COC(=O)c1cccc(S(=O)(=O)O)c1 [PMSB, prednisolone metasulfobenzoate]	1.83	46
Nc1ccc(O)c(C(=O)O)c1 [Formulation 5-ASA, 5-aminosalicylic acid]	1.25	63
